Assay results published in publication PMC11363342 (ACS Central Science, 2024).

Test system: SARS-CoV-2 variants Alpha, Beta, Delta, Omicron BA.1, and XBB.1.5
Assay type: cell-based

Compound: O=S1(=O)O[C@@H]2[C@H](O)[C@@H](O)[C@H](O)[C@@H](CO)[C@@H]2O1 [Compound 11, 1,6-epi-cyclophellitol cyclosulfate]
- reduction in infectious virus titer, SARS-CoV-2 variants: ~100 fold
